Reference: patent publication US9176114B2, “Cell culture model for acquired chemoresistance of chronic myelogenous leukemia and related methods for identifying agents to overcome resistance” (CITY OF HOPE, priority 2007, dated 2015)
Where a name gives a salt, the structure may show the parent alone.

What was measured:
SIRT1 = SIRT1 protein expression by Western blot; type: cell-based, human
Experimental: (§1) SIRT1 expression was analyzed by Western blot using 1:5000 diluted rabbit monoclonal SIRT1 antibody (Epitomics). Controls used were GAPDH or actin as loading controls with rabbit anti-GAPDH (Trevigen) or anti-actin (Sigma) at 1:5000 dilution. GAPDH [>ref|NT—009759.15|Hs12—9916:6497433-6502281 Homo sapiens chromosome 12 genomic contig, reference assembly] primers used are as follows: […]
RNA was extracted with Trizol (Invitrogen), synthesized the first strand DNA with Superscript III kit (Invitrogen), and analyzed gene expression using SYBR GreenER qPCR SuperMix kit (Invitrogen). For Western blots, rabbit monoclonal anti-human SIRT1 (Epitomics), rabbit anti-mouse SIRT1 (Upstate Biotech), mouse monoclonal anti-c-ABL (BD Pharmingen), mouse monoclonal anti-Ku70 (Neomarker), rabbit polyclonal anti-acetylated p53 (Cell Signaling) and rabbit polyclonal anti-acetylated FOXO1 (Santa Cruz Biotech) were used. To analyze Ku70 acetylation, Ku70 was pulled down from total cell lysate with anti-Ku70 and protein A-agarose beads (Upstate Biotech) followed by acetylation detection with rabbit anti-acetyl lysine antibody (Cell Signaling).

CML mice [1] = conditions: P210 BCR-ABL BALB/c model; cited from earlier work
KCL-22 cells [2] = assay: Resistance assay: relapse of KCL-22 cells in prolonged liquid culture (CML acquired resistance model); type: cell-based, human; conditions: for relapse of KCL-22 cells on imatinib (STI-571) in combination with the inhibitor: prolonged culture
Text: (§2) Cells were maintained in these cultures without changing medium.
Cells were maintained in these cultures without changing medium. Aliquots of cells were taken out at specified time points and cell numbers counted using a hematocytometer. Cell viability was accessed by trypan blue exclusion where necessary.

SIRT1 promoter = SIRT1 promoter assay (luciferase reporter); type: cell-based, human; conditions: KCL-22 and K562 cells
Experimental: FeOfection reagent (GENOVIS) was used to transfect 0.18 μg reporter and 0.02 μg pmaxGFP each well per the manufacturer's instruction. Six hours after transfection, cells were treated with imatinib and harvested after another 30 hs. Luciferase activity was measured using Dual-Luciferase Assay System (Promega), and normalized to GFP reading in each lysate.

K562 cells [3] = assay: Growth factor-induced transient resistance (serum-free medium, basic supplements, insulin); type: cell-based, human
Experimental: (A) Growth curves of K562 cells in serum medium, and serum-free medium supplied with basic supplements containing 5 μg/ml insulin and 5 μg/ml transferrin (basic) with or without 75 ng/ml EGF, 25 μg/ml HDL or both (EH). […] Relative survival of imatinib treated cells was calculated by comparison to no drug treatment. Pre-incubation for two days renders resistance. […] Since sirtinol is insoluble in SF medium, HDL 25 μg/ml was added to help dissolve the drug. (D) Effects of basic supplements in serum medium. […] Viable cells were counted one and three days after the treatment. […] (F) Effects of insulin in resistance.
Whether serum-free medium supplied with select growth factors provides a better culture environment for developing CML chemoresistance was determined. Serum-free (SF) medium with insulin, transferring, epidermal growth factor (EGF) and high density lipoprotein (HDL) was used. SF medium with the basic supplements (5 μg/ml insulin and 5 μg/ml transferring) was sufficient to support growth of both K562 cells (FIG. 13A) and KCL-22 cells. […] Sirtinol is able to overcome CML resistance in SF culture.
Transient resistance conferred by insulin and transferrin supplement is of interest as insulin receptor is overexpressed in about 90% primary CML cells. The key insulin downstream target phosphatidylinositol-3 kinase (PI3K) is required for BCR-ABL mediated transformation and inhibition of PI3K-Akt-mTor pathway has been explored to overcome CML chemoresistance. SIRT1 is a key gene for regulating insulin secretion and directly regulates Akt downstream target FOXO proteins through deacetylation. Therefore, the effect of insulin itself for transient resistance to imatinib and the response of sirtinol treatment were examined.

KU-812 xenograft = conditions: relapse after 48 to 60 days; cited from earlier work
HIC1 = HIC1 expression / SIRT1 level after HDAC and DNMT inhibitors; type: cell-based, human; conditions: KCL-22 cells, alone or in combination
Text: Total cellular RNA with Trizol (Invitrogen) using a standard protocol. First strand DNA was synthesized and HIC1 expression by quantitative real-time RT-PCR using a kit with SYBR Green label (Invitrogen) as per the manufacture's instruction on a BioRad machine OPTICON. The following are the HIC1 primers (spanning introns), 5′-[…]-3′(exon 1a) and 5′-[…]-3′ (Exon 2). [>ref|NT—010718.15|Hs17—10875:1561637-1565694 Homo sapiens chromosome 17 genomic contig, reference assembly]
as §1

[4] = test system: SIRT1 and other sirtuin deacetylases; conditions: cited from earlier work
KCL-22 cells [5] = assay: Analysis of reactive oxygen species (ROS) and DNA damage (γH2AX); type: cell-based, human; conditions: 24 h, in the presence or absence of imatinib
Experimental: ROS was analyzed using redox-sensitive fluorochrome 2′.7′-dichlorofluorescein diacetate (Sigma) as described previously (Koptyra et al. 2006). When coupled with the apoptosis analysis, cells were labeled with annexin V first and then 2′.7′-dichlorofluorescein diacetate.
Cells were pre-selected for four days in HAT medium to remove pre-existing HPRT mutations. The efficiency of HAT selection was confirmed by plating these cells on soft agar with 2.5 μg/ml 6-thioguanine, which produced zero colony. HAT-selected cells were then treated with 0.5 μM CPT for 1 hour, and then cultured for 10 days before used for soft agar clonogenic assay with 6-thioguanine selection. The rest of HAT-selected cells were cultured in medium without selection. The change of γH2AX was analyzed with γH2AX Assay Kit (Upstate Biotech).

Aurora A = assay: Expression of Aurora kinases by Western blot in KCL-22M cells; type: cell-based, human; conditions: two days of drug treatment
SD1 cells = assay: Resistance assay in BCR-ABL positive ALL cells; type: cell-based, human; conditions: 50 μM sirtinol alone or in combination with STI-571, prolonged culture
Experimental: as §2
The ability of sirtinol and imatinib to block resistance related to BCR-ABL mutations and non-mutants was determined in acute lymphocytic leukemia (ALL) cells.

Solubility = type: physicochemical
KCL-22 cells [6] = assay: Cell growth, apoptosis (annexin V) and cell cycle analysis; type: cell-based, human
Experimental: (§3) One half million cells per well were seeded in a 24-well plate and at 2 and 4 days after initiation of drug treatment, surviving cells were counted (A, B). […] The percentage of annexin V positive cells including early and late apoptotic cells was plotted underneath FACS charts.
(§4) Cell apoptosis was analyzed with annexin V kit (BD Pharminggen) as per the manufacturer's instruction.

K562 cells [7] = assay: as above; type: cell-based, human
Experimental: as §3, §4

AML CD34+ cells = assay: Apoptosis of AML CD34+ cells; type: cell-based, human
CML mice [8] = assay: Mouse bone marrow transduction/transplantation model of CML-like disease, drug treatment
[9] = Physiological indexes of normal BALB/c mice after 10 day treatment; type: in vivo; conditions: tenovin-6 alone or in combination with imatinib
CML CD34+ cells = assay: Apoptosis and p53 acetylation in primary CML CD34+ cells; type: cell-based, human
Text: FIG. 32 illustrates that SIRT1 inhibition enhances apoptosis of human CML progenitor cells. (A) Inhibition of SIRT1 protein expression in CML and cord blood (CB) CD34+ cells by lentivirus-mediated expression of SIRT1 shRNA. […] (C) SIRT1 inhibition in CML CD34+ cells results in increased P53 acetylation. […] (F) SIRT1 expression in CB and AML CD34+ cells.

[10] = 1 μM TSA with all dosages of STI-571
[11] = 50 μM sirtinol with 1 μM STI-571
[12] = two days treatment, PI staining

Cc1ccc(NC(=O)c2ccc(CN3CCN(C)CC3)cc2)cc1Nc1nccc(-c2cccnc2)n1 [STI-571, Imatinib mesylate]
SIRT1 expression (SIRT1; KCL-22M cells): did not change SIRT1 expression | SIRT1 protein levels (SIRT1; KCL-22 and K562 cells, imatinib 48 hours): decreased in a drug concentration-dependent manner | mice with prolonged survival on STI-571 (CML mice [1]): 80% | sensitivity of KCL-22 cells to treatment (KCL-22 cells [2]; 1 μM STI-571): insensitive | SIRT1 promoter activity (SIRT1 promoter): significantly inhibited SIRT1 promoter activity | sensitivity of K562 cells to STI-571 in SF medium (K562 cells [3]; 1 μM STI-571, two days pre-incubation in SF medium with basic supplements): as refractory as KCL-22 cells | fraction of mice relapsing on STI-571 (KU-812 xenograft): one third

CC(/C=C/C(=O)NO)=C\[C@@H](C)C(=O)c1ccc(N(C)C)cc1 [TSA, trichostatin A]
growth of KCL-22M cells (KCL-22M cells; 1 μM inhibitor): no effect on cell growth | cell killing in combination with STI-571 (KCL-22 cells [2]; [10]): massive apoptosis and dramatic cell killing | relapse on TSA plus STI-571 (KCL-22 cells [2]; [10]): After ten days, cells on all dosages of STI-571 relapsed | toxicity on KCL-22 cells, inhibitor alone (KCL-22 cells [2]; TSA at 1 μM alone): little toxicity | relapse of KCL-22 cells on imatinib (STI-571) in combination with the inhibitor (KCL-22 cells [2]): fails to block relapse | reactivation of HIC1 expression / reduction of SIRT1 level (HIC1): could not reactivate HIC1 expression or reduce SIRT1 level | sensitivity of SIRT1 to the inhibitor [4]: insensitive | γH2AX expression (KCL-22 cells [5]): elicited robust γH2AX induction

CC(NC(=O)c1ccccc1/N=C/c1c(O)ccc2ccccc12)c1ccccc1 (centres unmarked) [sirtinol]
cell death of KCL-22M cells, combination (KCL-22M cells; 50 μM sirtinol with 1 μM AZA): induced partial cell death | growth of KCL-22M cells, combination (KCL-22M cells; sirtinol (50 μM) with STI-571 ([…])): able to inhibit cell growth | Aurora A protein in KCL-22M cells (Aurora A): degraded | recurrence on nilotinib or dasatinib in combination with SIRT1 inhibitor (KCL-22 cells [2]): effectively blocked the recurrence | relapse on 1 μM Dasatinib in combination with sirtinol (KCL-22 cells [2]): blocked relapse | relapse on […] Nilotinib in combination with SIRT1 inhibitor (KCL-22 cells [2]): blocked relapse | relapse on sirtinol alone (KCL-22 cells [2]; 50 μM sirtinol alone): resulted in relapse after two weeks | relapse of KCL-22 cells on imatinib (STI-571) in combination with the inhibitor (KCL-22 cells [2]): blocks relapse | relapse of KCL-22 cells on imatinib (STI-571) in combination with the inhibitor (KCL-22 cells [2]; listed as Sirtinol): blocked relapse at all dosages of STI-571 | effect of sirtinol on SD1 cells (SD1 cells): eliminated these cells | transient resistance to 1 μM STI-571 from basic supplements in serum medium (K562 cells [3]; 50 μM sirtinol): abolished this transient resistance | transient resistance to 1 μM STI-571 from insulin (K562 cells [3]; sirtinol alone or in combination with STI-571): abolished this transient resistance | cell killing in SF culture (K562 cells [3]; sirtinol alone or with STI-571, K562 and KCL-22 cells, no relapse): rapid killing | effective concentration in vivo (limited by solubility) (Solubility): not obtainable in vivo | solubility in SF medium (Solubility; serum-free medium): insoluble | cell growth (KCL-22 cells [6]; 50 μM sirtinol alone): inhibited the growth | growth inhibition, combination (KCL-22 cells [6]; [11]): synergized their inhibitory effects | apoptosis (annexin V) (KCL-22 cells [6]; sirtinol alone): significantly induced annexin V positive apoptotic cells | apoptosis (annexin V), combination (KCL-22 cells [6]; sirtinol combined with STI-571): induced more dramatic apoptosis than each individual drug | cell cycle (KCL-22 cells [6]; [12]): reducing S/G2 and increasing sub-G1 population | cell growth (K562 cells [7]; 50 μM sirtinol alone): inhibited the growth | growth inhibition, combination (K562 cells [7]; [11]): synergized their inhibitory effects | apoptosis (annexin V) (K562 cells [7]; sirtinol alone): significantly induced annexin V positive apoptotic cells | apoptosis (annexin V), combination (K562 cells [7]; sirtinol combined with STI-571): induced more dramatic apoptosis than each individual drug | cell cycle (K562 cells [7]; [12]): rapidly increased sub-G1 and apoptotic fraction

CN(C)CCCCC(=O)Nc1ccc(NC(=S)NC(=O)c2ccc(C(C)(C)C)cc2)cc1 [tenovin-6]
lowest dose that blocked relapse on imatinib (KCL-22 cells [2]): 1 µM | recurrence on nilotinib or dasatinib in combination with SIRT1 inhibitor (KCL-22 cells [2]): effectively blocked the recurrence | relapse on […] Nilotinib in combination with SIRT1 inhibitor (KCL-22 cells [2]): blocked relapse | relapse on 1 μM Dasatinib in combination with tenovin-6 (KCL-22 cells [2]; 1 μM tenovin-6): delayed the relapse | relapse on 1 μM Dasatinib in combination with tenovin-6 (KCL-22 cells [2]; 5 μM tenovin-6): blocked relapse | relapse of KCL-22 cells on imatinib (STI-571) in combination with the inhibitor (KCL-22 cells [2]): blocks relapse | apoptosis of AML CD34+ cells (AML CD34+ cells): induced apoptosis | CML mouse survival (CML mice [8]; 50 mg/kg/day, 10 days from day 10 after transplantation): significantly extended CML mouse survival | CML mouse survival, combination (CML mice [8]; tenovin-6 with imatinib): longest survivors | toxicity [9]: No noticeable toxicity | P53 acetylation in CML CD34+ cells (CML CD34+ cells): enhanced P53 acetylation | apoptosis of primitive CML CD34+CD38- progenitors incl. quiescent fraction (CML CD34+ cells): increased apoptosis | water solubility (Solubility): water soluble
